# Source: ChEMBL document CHEMBL5465560, “Selectivity Literature for EUbOPEN Chemogenomic Library” (2024)
# Assays:
# [1] = target: Death-associated protein kinase 1 (Homo sapiens, UniProt P53355); conditions: at 10 µM
# [2] = target: Serine/threonine-protein kinase MRCK alpha (Homo sapiens) (UniProt Q5VT25); test: Selectivity interaction (ProQinase) EUB0000171b CDC42BPA
# [3] = target: Serine/threonine-protein kinase mTOR (Homo sapiens, UniProt P42345); test: Selectivity interaction (KinomeScan (DiscoverX)) EUB0000666a MTOR; conditions: at 10 µM
# [4] = target: Tyrosine-protein kinase Srms (Homo sapiens) (UniProt Q9H3Y6); test: Selectivity interaction (KinomeScan (DiscoverX)) EUB0000666a SRMS; conditions: at 10 µM
# [5] = target: Rho-associated protein kinase 2 (Homo sapiens, UniProt O75116); test: Selectivity interaction (Kinase panel (33PanQinase(R) Activity Assay)) EUB0000877a ROCK2
# [6] = tested on: Platelet-derived growth factor receptor alpha (Homo sapiens), P16234 [D842V]; test: (§1) Selectivity interaction (Kinase panel (Z-LYTE Assay)) EUB0001632a PDGFRA; conditions: at 10 µM
# [7] = tested on: Platelet-derived growth factor receptor alpha (Homo sapiens), P16234 [T674I]; test: as §1; conditions: at 10 µM
# Sequence of Platelet-derived growth factor receptor alpha (Homo sapiens), P16234 [T674I] (P16234 whole entry T674I): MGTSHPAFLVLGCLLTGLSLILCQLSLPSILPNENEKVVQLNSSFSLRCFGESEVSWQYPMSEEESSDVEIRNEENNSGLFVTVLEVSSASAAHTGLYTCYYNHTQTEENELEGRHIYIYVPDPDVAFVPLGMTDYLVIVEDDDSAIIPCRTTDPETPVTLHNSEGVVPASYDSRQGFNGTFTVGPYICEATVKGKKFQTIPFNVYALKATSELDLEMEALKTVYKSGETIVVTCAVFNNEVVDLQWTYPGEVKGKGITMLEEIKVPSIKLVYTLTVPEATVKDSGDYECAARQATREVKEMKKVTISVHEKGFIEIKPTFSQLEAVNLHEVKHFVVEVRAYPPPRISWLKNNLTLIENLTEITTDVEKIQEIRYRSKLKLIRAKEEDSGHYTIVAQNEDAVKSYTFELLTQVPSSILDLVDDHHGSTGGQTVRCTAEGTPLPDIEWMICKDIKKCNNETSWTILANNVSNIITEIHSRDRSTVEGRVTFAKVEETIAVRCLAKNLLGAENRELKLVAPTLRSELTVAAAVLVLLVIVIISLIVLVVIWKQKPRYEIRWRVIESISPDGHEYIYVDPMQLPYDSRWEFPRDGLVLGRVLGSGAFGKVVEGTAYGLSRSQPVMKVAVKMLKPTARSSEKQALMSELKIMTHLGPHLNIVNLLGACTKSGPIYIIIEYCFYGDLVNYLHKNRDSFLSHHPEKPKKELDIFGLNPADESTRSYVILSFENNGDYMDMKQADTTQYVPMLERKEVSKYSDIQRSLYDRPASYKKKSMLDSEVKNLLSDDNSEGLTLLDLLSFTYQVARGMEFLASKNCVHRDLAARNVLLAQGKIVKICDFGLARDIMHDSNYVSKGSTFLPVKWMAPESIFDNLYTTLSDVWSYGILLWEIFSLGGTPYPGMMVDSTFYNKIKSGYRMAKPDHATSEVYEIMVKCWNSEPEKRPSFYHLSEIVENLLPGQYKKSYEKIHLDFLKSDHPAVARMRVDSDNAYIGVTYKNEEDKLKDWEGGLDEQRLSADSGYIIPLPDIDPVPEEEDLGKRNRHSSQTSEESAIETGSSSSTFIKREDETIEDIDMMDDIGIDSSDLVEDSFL
# [8] = tested on: Platelet-derived growth factor receptor alpha (Homo sapiens), P16234 [V561D]; test: as §1; conditions: at 10 µM
# Sequence of Platelet-derived growth factor receptor alpha (Homo sapiens), P16234 [V561D] (P16234 whole entry V561D): as the sequence (P16234 whole entry T674I) above, with V561D, I674T counted along it
# [9] = target: Platelet-derived growth factor receptor alpha (Homo sapiens, UniProt P16234); test: as §1; conditions: at 10 µM
# Sequence of Platelet-derived growth factor receptor alpha (P16234 whole entry): as the sequence (P16234 whole entry T674I) above, with I674T counted along it
# [10] = target: T1, Protein arginine N-methyltransferase 9 (Homo sapiens) (UniProt Q6P2P2); test: Selectivity interaction (Transferase panel (protein, RNA, and DNA methyltransferases. and EP300 (acetyltransferase))) EUB0000270b PRMT9
# T1 sequence (whole entry): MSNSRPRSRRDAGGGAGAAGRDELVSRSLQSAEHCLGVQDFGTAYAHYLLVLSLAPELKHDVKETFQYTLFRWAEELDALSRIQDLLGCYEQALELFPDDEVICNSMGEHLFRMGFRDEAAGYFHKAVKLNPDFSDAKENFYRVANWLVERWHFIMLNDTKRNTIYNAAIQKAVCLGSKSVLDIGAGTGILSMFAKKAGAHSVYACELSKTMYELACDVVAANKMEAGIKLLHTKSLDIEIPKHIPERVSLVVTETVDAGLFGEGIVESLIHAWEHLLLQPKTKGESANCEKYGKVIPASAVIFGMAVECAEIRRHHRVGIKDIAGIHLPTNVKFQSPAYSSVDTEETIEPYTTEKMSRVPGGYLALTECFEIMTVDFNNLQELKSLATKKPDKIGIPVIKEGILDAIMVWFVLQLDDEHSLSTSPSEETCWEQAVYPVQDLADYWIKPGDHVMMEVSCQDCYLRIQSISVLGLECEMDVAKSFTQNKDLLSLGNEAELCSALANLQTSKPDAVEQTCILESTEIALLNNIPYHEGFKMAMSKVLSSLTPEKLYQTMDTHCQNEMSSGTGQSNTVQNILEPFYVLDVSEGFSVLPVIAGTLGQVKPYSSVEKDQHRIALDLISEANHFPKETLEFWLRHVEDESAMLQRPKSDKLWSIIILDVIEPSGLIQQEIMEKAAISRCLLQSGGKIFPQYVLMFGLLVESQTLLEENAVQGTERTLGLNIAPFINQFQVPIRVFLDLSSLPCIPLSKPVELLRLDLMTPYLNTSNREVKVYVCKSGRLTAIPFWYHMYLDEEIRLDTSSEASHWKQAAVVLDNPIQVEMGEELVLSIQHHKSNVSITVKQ
# [11] = target: T2, Ribosomal protein S6 kinase delta-1 (Homo sapiens) (UniProt Q96S38); test: Selectivity interaction (ActivX KiNativ screen (kinase selectivity in THP-1 cell lysates)) EUB0000639a RPS6KC1; assay type: subcellular; conditions: lysate
# T2 sequence (whole entry): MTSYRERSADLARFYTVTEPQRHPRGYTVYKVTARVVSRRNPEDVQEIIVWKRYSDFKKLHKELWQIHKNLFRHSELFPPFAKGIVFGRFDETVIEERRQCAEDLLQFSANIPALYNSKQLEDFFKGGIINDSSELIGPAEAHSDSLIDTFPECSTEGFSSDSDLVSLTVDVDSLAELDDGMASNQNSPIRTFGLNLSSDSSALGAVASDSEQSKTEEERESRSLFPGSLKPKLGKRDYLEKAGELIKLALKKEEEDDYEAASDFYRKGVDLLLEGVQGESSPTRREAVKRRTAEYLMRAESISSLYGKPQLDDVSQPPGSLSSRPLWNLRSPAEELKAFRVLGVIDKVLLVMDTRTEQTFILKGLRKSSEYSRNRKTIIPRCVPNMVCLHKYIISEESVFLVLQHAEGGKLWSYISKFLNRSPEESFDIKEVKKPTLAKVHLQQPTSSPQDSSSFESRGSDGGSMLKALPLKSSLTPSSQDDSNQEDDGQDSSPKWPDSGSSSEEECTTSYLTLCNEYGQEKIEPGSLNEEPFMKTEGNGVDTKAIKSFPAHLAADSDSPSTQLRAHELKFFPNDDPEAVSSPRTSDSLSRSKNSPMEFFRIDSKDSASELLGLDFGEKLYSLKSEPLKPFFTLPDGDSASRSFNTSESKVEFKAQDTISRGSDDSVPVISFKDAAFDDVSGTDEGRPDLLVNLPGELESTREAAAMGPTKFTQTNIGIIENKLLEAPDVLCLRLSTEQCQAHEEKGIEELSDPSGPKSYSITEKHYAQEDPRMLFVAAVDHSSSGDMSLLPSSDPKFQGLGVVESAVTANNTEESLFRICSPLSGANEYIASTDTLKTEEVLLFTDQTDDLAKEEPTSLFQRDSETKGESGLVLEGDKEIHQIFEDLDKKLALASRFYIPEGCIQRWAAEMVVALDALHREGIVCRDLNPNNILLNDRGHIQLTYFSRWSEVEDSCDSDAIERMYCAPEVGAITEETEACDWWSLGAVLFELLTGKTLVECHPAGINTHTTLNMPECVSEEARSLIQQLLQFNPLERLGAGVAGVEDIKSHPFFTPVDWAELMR
# [12] = tested on: Fibroblast growth factor receptor 3 (Homo sapiens), P22607 [G697C]; test: (§2) Selectivity interaction (KinomeScan (DiscoverX)) EUB0000607a FGFR3; conditions: at 10 µM
# [13] = target: Fibroblast growth factor receptor 3 (Homo sapiens, UniProt P22607); test: as §2; conditions: at 10 µM
# [14] = target: Mitogen-activated protein kinase kinase kinase 20 (Homo sapiens) (UniProt Q9NYL2); test: Selectivity interaction (Ambit KINOMEscan and KiNATiv profiling in Jurkat cells) EUB0000090b MAP3K20; assay type: cell-based; conditions: at 1 µM
# Sequence of Mitogen-activated protein kinase kinase kinase 20 (Homo sapiens) (Q9NYL2 2-800 limits assumed): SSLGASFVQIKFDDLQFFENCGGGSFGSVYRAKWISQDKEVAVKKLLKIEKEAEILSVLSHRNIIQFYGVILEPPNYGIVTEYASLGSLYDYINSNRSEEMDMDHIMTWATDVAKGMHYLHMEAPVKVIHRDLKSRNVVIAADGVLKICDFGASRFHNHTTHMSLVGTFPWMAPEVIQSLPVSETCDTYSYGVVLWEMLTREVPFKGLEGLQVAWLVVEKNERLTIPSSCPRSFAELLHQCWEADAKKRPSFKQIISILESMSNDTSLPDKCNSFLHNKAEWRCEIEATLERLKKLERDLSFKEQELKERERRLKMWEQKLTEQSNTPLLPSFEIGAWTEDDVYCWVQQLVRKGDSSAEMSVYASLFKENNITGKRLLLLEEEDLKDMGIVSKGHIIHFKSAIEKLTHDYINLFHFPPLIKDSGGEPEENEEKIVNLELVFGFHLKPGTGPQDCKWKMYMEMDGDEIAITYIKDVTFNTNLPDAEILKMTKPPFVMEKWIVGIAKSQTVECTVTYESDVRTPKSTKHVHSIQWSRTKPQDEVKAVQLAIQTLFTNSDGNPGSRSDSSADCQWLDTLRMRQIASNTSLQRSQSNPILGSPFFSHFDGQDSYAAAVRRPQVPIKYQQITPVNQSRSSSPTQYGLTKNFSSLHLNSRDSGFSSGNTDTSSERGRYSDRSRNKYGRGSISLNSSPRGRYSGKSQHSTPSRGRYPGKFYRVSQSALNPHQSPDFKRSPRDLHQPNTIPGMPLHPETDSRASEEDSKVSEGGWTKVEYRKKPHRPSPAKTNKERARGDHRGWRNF
# [15] = target: Dual specificity protein kinase CLK3 (Homo sapiens, UniProt P49761); test: Selectivity interaction (KinomeScan (DiscoverX)) EUB0001619a CLK3; conditions: at 1 µM
# [16] = target: Ribosomal protein S6 kinase alpha-1 (Homo sapiens, UniProt Q15418); test: Selectivity interaction (ActivX KiNativ screen (ex vivo kinase selectivity in human PBMCs)) EUB0001619a RPS6KA1; assay type: cell-based; conditions: PBMC, at 1 µM
# Sequence of Serine/threonine-protein kinase MRCK alpha (Homo sapiens) (Q5VT25 whole entry): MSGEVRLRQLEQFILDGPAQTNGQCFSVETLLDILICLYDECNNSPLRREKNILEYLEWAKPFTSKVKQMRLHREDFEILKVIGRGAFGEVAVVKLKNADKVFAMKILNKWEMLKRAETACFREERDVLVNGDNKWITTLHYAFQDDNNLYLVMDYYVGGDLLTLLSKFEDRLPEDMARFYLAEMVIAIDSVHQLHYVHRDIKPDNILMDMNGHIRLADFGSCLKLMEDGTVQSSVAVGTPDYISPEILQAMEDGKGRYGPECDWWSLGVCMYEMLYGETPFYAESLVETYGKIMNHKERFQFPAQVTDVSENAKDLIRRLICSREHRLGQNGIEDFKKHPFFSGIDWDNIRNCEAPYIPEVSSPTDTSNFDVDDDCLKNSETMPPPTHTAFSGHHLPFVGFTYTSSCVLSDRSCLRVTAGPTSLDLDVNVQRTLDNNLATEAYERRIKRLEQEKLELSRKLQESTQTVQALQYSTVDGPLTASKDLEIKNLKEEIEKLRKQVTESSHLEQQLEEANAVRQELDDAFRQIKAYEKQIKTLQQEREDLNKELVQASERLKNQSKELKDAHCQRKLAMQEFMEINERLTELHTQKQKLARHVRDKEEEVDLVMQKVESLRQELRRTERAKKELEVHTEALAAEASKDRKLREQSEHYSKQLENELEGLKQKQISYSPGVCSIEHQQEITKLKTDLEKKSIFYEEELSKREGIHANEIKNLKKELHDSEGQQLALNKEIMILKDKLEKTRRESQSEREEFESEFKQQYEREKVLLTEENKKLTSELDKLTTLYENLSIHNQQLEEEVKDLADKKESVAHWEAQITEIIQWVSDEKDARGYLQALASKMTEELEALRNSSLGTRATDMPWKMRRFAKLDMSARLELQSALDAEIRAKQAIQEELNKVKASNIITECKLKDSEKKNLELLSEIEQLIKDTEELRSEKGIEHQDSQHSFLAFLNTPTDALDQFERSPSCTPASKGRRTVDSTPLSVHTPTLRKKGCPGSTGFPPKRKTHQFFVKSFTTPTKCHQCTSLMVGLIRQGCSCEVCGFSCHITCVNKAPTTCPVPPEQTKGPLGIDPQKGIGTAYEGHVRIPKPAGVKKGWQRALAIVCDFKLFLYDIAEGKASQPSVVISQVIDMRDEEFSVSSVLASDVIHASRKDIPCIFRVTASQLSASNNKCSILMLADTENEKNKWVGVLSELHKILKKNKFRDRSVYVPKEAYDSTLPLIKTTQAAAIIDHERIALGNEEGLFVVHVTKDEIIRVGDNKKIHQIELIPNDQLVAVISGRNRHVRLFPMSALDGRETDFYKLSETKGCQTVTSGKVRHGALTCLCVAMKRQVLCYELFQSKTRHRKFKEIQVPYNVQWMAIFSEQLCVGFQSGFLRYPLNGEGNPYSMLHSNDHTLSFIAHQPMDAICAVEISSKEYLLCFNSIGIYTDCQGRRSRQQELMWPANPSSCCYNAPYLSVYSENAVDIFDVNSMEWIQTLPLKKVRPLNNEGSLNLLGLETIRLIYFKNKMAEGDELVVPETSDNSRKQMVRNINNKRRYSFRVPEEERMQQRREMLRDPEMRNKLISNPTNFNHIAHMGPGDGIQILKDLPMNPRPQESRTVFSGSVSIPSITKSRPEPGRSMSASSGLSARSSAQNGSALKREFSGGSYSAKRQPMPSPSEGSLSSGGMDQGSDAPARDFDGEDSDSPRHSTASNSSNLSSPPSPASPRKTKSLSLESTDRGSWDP
# Sequence of Death-associated protein kinase 1 (P53355 whole entry, looked up): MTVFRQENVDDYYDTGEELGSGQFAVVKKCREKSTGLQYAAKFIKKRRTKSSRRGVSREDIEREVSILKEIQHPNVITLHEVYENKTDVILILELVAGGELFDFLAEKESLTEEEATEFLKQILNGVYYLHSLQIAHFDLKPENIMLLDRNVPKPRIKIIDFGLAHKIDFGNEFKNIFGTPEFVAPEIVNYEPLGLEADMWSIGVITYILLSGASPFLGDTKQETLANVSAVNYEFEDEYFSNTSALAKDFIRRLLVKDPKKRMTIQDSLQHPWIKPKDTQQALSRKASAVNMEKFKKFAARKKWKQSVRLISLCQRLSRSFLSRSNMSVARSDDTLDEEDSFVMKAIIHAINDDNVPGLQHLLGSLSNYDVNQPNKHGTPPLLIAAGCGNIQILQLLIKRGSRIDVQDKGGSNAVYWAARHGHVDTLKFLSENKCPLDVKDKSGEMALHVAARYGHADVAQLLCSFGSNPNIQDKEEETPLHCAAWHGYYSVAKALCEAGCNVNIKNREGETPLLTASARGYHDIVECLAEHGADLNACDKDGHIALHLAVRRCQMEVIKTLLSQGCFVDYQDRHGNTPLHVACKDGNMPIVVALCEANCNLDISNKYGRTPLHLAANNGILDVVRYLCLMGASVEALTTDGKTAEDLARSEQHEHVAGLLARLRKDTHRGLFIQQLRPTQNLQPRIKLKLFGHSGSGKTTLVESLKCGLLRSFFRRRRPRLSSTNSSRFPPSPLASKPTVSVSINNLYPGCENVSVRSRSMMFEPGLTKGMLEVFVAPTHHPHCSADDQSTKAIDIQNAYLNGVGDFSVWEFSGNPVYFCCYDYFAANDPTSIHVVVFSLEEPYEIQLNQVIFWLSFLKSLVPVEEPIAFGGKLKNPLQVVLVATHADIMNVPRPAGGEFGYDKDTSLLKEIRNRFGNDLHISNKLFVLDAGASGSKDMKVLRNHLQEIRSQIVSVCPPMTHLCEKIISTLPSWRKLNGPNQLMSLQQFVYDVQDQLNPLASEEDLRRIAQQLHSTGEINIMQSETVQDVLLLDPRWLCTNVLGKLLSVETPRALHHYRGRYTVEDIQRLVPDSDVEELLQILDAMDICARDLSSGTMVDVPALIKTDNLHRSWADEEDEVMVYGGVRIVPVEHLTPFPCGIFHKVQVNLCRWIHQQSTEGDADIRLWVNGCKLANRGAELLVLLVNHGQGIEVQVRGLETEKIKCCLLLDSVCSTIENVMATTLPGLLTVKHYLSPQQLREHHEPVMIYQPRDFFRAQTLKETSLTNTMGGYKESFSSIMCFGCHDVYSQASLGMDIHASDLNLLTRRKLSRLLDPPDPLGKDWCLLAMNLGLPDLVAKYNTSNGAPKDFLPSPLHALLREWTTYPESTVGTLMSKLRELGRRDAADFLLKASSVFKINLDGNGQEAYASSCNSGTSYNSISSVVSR
smiles,measurement,setting,value
CCN(CC)CCCCNc1ncc2cc(-c3cc(OC)cc(OC)c3)c(NC(=O)NC(C)(C)C)nc2n1,% of control,[1],100%
C=CC(=O)Nc1cccc(C(=O)Nc2ccc(Nc3cc(-c4[nH]c(SC)nc4C)ccn3)cc2)c1,% of control,[2]; at 1 µM,102%
same,% of control,[2]; at 5 µM,91%
O=C(NOC[C@H](O)CO)c1ccc(F)c(F)c1Nc1ccc(I)cc1F,% of control,[3],100%
same,% of control,[4],95%
CCC(=O)N1CC[C@H](Nc2ncnc3c2CN(c2cnc(OC)c(C(F)(F)F)c2)CC3)C1 [LENIOLISIB],IC50,[5],> 10 µM
Cn1cc(-n2cnc3c(NCc4nc5cc(Cl)c(Cl)cc5[nH]4)nc(N4CCOCC4)nc32)cn1,% of control,[6],7.9%
same,% of control,[7],4.9%
same,% of control,[8],19.4%
same,% of control,[9],8.82%
Cc1cc(CN)cc(C)c1-c1ncn(C)c1-c1cncn1C,% activity,[10]; at 1 µM,> 90%
same,% activity,[10]; at 10 µM,> 80%
CC[C@@H]1[C@H](F)C(=O)N[C@@H]1COc1nccc2cc(C(N)=O)c(OC)cc12 [ZIMLOVISERTIB],% of inhibition,[11]; at 0.01 µM,11.8%
same,% of inhibition,[11]; at 0.04 µM,-10.9%
same,% of inhibition,[11]; at 0.2 µM,-1.8%
same,% of inhibition,[11]; at 1 µM,9.6%
same,% of inhibition,[11]; at 5 µM,8.3%
CNC(=O)Nc1ccc(-c2nc(N3CC4CCC(C3)O4)c3cnn(C4CCC5(CC4)OCCO5)c3n2)cc1,% of control,[12],74%
same,% of control,[13],83%
CN(C)C/C=C/C(=O)Nc1ccc(C(=O)N2CCCC(Nc3ncc(Cl)c(-c4c[nH]c5ccccc45)n3)C2)cc1 (configuration not stated),% of control,[14],89%
N#Cc1cccc(-c2c[nH]c3ncnc(N4CCOCC4)c23)c1,% of control,[15],78%
same,% of inhibition,[16],13%
